From patent US20180117005A1, “COMPOSITIONS FOR THE TREATMENT OF CANCER” (THE GENERAL HOSPITAL CORPORATION, priority 2015, published 2018)

Test system: tumor that expresses high levels of CXCL12
Assay: Tumor growth in mice with a subcutaneous CXCL12-expressing tumor, AMD3100 followed by cisplatin
Assay type: in vivo
Description: Mice are injected with tumor cells (subcutaneous injection) from a tumor that expresses high levels of CXCL12 and a tumor allowed to develop. Once the tumor has formed, the mice are injected (subcutaneous in the same flank as the tumor) with AMD3100 or vehicle, once a day for 5 days.
One to three days after the final dose of AMD3100, mice are injected via intraperitoneal injection with a therapeutically effective amount of cisplatin 18 hours prior to assay of tumor growth.

Row | SMILES | Delay in tumor growth, co-treatment versus cisplatin alone (AMD3100 subcutaneous once a day for 5 days, then cisplatin intraperitoneal one to three days after the final dose) | Tumor growth (cisplatin intraperitoneal 18 hours prior to assay, growth resumes soon after treatment is discontinued in mice not administered AMD3100)
1 | c1cc(CN2CCCNCCNCCCNCC2)ccc1CN1CCCNCCNCCCNCC1 [AMD3100] | synergistic effect | –
2 | N.N.[Cl][Pt][Cl] [cisplatin] | – | delayed
